In assay [1] the target is OSR1/OXSR1 (Homo sapiens, UniProt O95747). The assay can be described thus: biochemical. The settings on record: read-out: % enzyme activity, 1 μM; Run 1, Run 2.
Assay [2] has as its target CDK2/cyclin O (Homo sapiens, UniProt P24941). The assay can be described thus: biochemical. The settings on record: read-out: % enzyme activity, 1 μM; Run 1, Run 2.
Assay [3] has as its target CK1g1 (Homo sapiens, UniProt Q9HCP0). The note with it: 1 μM; Run 1, Run 2.
Assay [4] concerns the target LYN B (Homo sapiens, UniProt P07948). The note with it: 1 μM; Run 1, Run 2.
The target of assay [5] is PIM1 (Homo sapiens, UniProt P11309). The assay can be described thus: biochemical. The settings on record: read-out: % enzyme activity, 1 μM; Run 1, Run 2.
Assay [6] addresses T1, BRSK1 (Homo sapiens, UniProt Q8TDC3).
T1 sequence (Q8TDC3 1-778): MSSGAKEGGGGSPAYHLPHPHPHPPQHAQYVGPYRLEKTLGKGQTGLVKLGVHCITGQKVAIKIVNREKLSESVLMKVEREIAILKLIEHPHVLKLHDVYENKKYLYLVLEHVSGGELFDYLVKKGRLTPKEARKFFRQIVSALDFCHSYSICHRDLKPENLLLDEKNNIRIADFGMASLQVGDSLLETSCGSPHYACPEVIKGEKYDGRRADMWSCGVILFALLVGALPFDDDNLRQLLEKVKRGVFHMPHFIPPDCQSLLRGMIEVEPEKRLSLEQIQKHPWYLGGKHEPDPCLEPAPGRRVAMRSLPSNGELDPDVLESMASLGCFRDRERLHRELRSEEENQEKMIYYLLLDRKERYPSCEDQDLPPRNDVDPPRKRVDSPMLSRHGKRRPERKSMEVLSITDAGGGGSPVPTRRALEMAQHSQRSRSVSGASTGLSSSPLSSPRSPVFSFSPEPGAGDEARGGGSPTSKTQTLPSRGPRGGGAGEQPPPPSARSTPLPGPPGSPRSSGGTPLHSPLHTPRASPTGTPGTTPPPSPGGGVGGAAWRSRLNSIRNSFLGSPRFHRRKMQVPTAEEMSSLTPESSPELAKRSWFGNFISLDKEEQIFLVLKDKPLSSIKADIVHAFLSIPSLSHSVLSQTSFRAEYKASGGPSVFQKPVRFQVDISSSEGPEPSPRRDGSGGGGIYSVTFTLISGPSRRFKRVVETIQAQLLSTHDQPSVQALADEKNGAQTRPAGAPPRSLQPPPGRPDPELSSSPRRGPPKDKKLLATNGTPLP
The settings on record: 1 μM; Run 1, Run 2.

The target of assay [7] is T2, EPHA8 (Homo sapiens, UniProt P29322).
T2 sequence (P29322 28-1005): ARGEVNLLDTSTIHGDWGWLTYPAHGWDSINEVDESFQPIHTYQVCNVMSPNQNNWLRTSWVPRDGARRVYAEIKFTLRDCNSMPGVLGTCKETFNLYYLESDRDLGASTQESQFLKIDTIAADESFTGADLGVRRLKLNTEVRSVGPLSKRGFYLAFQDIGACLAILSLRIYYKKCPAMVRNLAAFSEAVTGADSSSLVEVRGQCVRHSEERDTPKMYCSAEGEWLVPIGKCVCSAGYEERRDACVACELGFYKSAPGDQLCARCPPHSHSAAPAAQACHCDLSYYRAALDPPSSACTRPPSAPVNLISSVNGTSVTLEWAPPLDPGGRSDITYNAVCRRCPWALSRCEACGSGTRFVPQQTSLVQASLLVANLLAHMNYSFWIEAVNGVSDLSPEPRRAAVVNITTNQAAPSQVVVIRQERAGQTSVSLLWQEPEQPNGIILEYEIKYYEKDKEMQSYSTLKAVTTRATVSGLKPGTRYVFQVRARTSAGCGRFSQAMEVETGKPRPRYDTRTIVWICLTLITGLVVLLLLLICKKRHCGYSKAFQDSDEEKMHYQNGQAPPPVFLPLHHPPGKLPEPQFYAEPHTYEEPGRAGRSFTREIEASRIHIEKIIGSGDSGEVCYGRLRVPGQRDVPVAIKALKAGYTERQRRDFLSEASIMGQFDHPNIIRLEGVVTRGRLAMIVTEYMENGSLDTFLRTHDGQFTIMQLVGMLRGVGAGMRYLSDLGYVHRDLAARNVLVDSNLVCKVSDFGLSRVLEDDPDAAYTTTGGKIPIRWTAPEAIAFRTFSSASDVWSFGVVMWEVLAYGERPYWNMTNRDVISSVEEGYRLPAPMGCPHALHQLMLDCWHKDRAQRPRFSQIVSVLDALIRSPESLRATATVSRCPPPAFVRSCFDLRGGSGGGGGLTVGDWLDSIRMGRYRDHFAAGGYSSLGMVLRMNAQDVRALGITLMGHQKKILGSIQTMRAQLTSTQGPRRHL
The assay is described as follows: biochemical. The settings on record: read-out: % enzyme activity, 1 μM; Run 1, Run 2.

The target in assay [8] is T3, MASTL (Homo sapiens, UniProt Q96GX5).
T3 sequence (Q96GX5 1-879): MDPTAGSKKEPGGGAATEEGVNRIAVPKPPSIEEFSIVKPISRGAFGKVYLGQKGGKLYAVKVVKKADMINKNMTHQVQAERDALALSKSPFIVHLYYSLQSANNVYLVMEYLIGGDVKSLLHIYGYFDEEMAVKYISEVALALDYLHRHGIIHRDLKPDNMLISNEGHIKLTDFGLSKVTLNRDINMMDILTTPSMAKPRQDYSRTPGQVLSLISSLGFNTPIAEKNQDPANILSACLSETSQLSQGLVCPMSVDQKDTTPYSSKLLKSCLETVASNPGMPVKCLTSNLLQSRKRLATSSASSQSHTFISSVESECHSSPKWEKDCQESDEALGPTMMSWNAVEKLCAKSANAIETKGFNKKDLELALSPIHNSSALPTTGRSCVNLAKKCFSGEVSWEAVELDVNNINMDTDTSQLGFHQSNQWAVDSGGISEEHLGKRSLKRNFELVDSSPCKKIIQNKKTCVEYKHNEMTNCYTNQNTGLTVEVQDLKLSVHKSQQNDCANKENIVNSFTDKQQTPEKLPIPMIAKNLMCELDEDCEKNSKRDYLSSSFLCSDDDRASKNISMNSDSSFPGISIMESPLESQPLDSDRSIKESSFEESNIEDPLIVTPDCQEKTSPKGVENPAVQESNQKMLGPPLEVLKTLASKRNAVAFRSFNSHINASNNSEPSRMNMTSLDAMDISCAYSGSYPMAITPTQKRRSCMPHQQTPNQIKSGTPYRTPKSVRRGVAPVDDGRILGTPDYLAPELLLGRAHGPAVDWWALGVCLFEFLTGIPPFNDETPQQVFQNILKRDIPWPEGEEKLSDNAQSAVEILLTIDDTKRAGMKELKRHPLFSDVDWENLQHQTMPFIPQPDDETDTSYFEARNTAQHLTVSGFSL
The settings on record: 1 μM; Run 1, Run 2.

Experimental findings from article PMC8213057, “Targeting ALK2: An Open Science Approach to Developing Therapeutics for the Treatment of Diffuse Intrinsic Pontine Glioma” (Journal of Medicinal Chemistry, 2020) are described below.

LYN B, sequence (P07948 1-491 isoform P07948-2): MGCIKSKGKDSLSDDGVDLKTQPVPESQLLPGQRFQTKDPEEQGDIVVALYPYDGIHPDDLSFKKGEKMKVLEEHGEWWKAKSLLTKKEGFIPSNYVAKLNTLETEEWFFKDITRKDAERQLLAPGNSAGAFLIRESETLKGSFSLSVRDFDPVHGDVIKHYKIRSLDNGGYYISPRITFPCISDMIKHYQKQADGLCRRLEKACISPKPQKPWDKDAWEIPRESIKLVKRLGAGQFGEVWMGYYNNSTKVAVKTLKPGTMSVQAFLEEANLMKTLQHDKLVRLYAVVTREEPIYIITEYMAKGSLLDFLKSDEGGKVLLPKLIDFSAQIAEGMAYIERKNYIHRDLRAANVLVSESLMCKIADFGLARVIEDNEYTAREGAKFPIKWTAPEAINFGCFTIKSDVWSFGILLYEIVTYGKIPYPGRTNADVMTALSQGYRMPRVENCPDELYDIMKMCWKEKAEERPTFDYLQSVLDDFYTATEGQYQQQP
PIM1, sequence (P11309 whole entry): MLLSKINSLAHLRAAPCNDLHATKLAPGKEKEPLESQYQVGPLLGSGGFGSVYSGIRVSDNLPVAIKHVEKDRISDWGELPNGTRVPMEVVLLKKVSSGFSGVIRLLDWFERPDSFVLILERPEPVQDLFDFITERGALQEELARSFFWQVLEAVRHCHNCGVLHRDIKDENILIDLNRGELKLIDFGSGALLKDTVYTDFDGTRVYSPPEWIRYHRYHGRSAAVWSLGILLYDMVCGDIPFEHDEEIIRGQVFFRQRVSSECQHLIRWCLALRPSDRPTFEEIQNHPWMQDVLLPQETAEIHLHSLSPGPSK
CK1g1, sequence (Q9HCP0 whole entry): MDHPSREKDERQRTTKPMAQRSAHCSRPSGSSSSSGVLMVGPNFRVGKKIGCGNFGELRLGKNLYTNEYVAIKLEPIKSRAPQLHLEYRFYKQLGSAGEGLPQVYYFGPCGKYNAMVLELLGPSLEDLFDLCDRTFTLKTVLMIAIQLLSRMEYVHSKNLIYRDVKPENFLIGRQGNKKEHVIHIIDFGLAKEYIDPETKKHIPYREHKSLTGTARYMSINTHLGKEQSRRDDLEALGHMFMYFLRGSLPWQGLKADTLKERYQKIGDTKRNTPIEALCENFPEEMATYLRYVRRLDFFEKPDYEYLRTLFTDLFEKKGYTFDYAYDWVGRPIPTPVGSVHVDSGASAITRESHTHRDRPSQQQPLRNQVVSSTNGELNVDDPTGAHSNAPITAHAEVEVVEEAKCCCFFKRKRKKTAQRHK
OSR1/OXSR1, sequence (O95747 whole entry): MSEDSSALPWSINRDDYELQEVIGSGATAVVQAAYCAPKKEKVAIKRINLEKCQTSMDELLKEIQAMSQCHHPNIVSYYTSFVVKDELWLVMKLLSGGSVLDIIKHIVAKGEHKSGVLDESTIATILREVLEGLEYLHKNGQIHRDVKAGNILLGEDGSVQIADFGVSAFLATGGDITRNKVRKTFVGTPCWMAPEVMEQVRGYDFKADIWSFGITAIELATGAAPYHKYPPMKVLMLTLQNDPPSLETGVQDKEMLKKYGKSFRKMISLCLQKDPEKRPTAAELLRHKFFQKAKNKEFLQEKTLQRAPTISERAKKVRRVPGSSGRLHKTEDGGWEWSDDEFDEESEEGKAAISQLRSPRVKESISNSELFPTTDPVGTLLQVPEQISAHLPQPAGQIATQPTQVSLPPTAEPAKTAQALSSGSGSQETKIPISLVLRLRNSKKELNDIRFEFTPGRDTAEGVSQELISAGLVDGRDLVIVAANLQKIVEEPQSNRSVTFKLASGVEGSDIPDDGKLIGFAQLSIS

Consider `COc1cc(-c2cncc(-c3ccc(N4CCN(C)CC4)cc3)c2C)cc(F)c1C(N)=O` [Compound 26a, 2-Fluoro-6-methoxy-4-(4-methyl-5-(4-(4-methylpiperazin-1-yl)phenyl)pyridin-3-yl)benzamide], for which the remaining activity at 1 µM in assay [1] was found to be 93.4%; in assay [2], 95.1%; in assay [5], 100%; in assay [7], 95.3%. Moreover, the “% enzyme activity” value in assay [3] came out at 55.41%; in assay [4], 96.56%; in assay [6] it was 83.89%; in assay [8], 98.59%.

With `COc1cc(-c2cncc(-c3ccc(N4C[C@@H](C)N(C)[C@@H](C)C4)cc3)c2C)cc(F)c1C(N)=O` [Compound 26c, 2-Fluoro-6-methoxy-4-(4-methyl-5-(4-((3R,5S)-3,4,5-trimethylpiperazin-1-yl)phenyl)pyridin-3-yl)benzamide], the remaining activity at 1 µM in assay [1] is 95%; in assay [2], 92.7%; in assay [5] it was 95.2%; in assay [7], 97.5%. The “% enzyme activity” value came to 69.61% in assay [3], 97.80% in assay [4], 78.18% in assay [6] and 100.30% in assay [8].
